Test results published in patent US8956824B2, “Methods for identifying allosteric modulators of ship polypeptides” (British Columbia Cancer Agency Branch, priority 2006, dated 2015).

Molecular target: T1, SHIP2 enzyme (Homo sapiens, UniProt O15357)
T1 construct: purchased Echelon Biosciences (Salt Lake City, Utah)
T1 sequence (O15357 1-1258): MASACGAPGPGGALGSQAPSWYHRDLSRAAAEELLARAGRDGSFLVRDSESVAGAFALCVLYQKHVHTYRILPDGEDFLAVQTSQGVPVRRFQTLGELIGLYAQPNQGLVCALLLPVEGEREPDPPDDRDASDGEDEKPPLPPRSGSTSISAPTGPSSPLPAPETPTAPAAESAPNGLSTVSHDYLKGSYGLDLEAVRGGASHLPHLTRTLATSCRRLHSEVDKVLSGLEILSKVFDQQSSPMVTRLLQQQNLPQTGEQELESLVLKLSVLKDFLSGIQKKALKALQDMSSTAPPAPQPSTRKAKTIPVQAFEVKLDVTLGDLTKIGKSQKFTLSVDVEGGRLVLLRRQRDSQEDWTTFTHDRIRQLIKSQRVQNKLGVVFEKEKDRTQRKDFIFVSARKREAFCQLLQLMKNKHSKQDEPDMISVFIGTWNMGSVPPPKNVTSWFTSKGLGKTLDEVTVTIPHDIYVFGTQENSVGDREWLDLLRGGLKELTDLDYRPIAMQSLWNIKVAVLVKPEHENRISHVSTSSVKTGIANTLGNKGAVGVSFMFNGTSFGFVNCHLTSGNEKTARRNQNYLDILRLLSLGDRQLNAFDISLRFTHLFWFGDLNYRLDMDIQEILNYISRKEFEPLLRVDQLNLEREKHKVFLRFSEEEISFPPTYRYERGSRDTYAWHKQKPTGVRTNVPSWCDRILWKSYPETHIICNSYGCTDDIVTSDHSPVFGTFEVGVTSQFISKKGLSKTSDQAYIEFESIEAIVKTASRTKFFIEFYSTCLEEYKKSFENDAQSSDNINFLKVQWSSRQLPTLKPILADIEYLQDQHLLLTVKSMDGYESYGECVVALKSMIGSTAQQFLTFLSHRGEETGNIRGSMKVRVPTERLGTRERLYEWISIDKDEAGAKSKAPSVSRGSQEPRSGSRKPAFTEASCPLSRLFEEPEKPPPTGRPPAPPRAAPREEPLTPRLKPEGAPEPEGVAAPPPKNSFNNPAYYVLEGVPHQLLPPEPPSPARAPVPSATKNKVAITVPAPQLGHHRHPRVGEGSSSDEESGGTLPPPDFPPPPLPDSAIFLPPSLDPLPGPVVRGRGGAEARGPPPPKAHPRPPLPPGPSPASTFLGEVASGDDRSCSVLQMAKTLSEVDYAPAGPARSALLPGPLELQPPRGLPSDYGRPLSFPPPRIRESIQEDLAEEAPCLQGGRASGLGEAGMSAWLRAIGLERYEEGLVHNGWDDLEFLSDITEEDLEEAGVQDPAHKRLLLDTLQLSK
Experiment: In vitro SHIP enzyme assay, SHIP2
Type: biochemical
Conditions: FIG. 1B
Method: In vitro SHIP enzyme assay. The SHIP enzyme assay was performed in 96-well microtitre plates with 10 ng of enzyme/well in a total volume of 25 μL of 20 mM Tris HCl, pH 7.5 and 10 mM MgCl2. SHIP1 enzyme was incubated with test extracts (provided in DMSO) or vehicle for 15 mM at 23° C. before the addition of 100 μM inositol-1,3,4,5-tetrakisphosphate (Echelon Biosciences Inc, Salt Lake City, Utah). The reaction was allowed to proceed for 20 min at 37° C. and the amount of inorganic phosphate released assessed by the addition of Malachite Green reagent followed by an absorbance measurement at 650 nm (15). SHIP2 enzyme was purchased from Echelon Biosciences (Salt Lake City, Utah) and an equivalent amount of inositol phosphatase activity was used in the in vitro enzyme assay. Enzyme data are expressed as the mean of triplicates+/−SEM. Experiments were performed at least 3 times.

Cc1cc(O)c(O)c2c1[C@]1(C)CC[C@H]3C(C)(C)CCC[C@]3(C)[C@H]1C2 [AQX-016A]
activation of SHIP1 versus SHIP2: preferentially activates SHIP1 over SHIP2
